From patent US10632206B2, “Zwitterionic polymers with therapeutic moieties” (priority 2008, dated 2020)
pIC50: −log10 of the molar value.

Legend:
Assay in all cases: In vitro cytotoxicity, CellTiter-Glo cell viability
Format in all cases: cell-based
[1] = system: human breast (MCF-7) adenocarcinoma cells; details: MCF7, 72 h incubation, CPT-equivalent concentrations
Source text: (§1) HPLC characterization of CPT liberation from CPT-polyMPC conjugates confirmed the importance of tailored linkers, and was informative for in vitro cell culture evaluation of conjugate toxicity against various cell lines. […] These CPT hydrolysis half-lives are, however, slower than those reported for PEGylated-SN38 conjugates, leading to an expected longer blood circulation time in vivo. […] Controls included a DMSO solution of CPT, and polyMPC itself in sterile distilled water. […] Importantly, the cytotoxicity was through the CPT only, since polyMPC by itself was non-toxic (FIG. 8).
(§2) Sodium azide, 4-(dimethylamino)pyridine (DMAP), N,N′-diisopropylethylamine (DIPEA), triethylamine (TEA), N-(3-Dimethylaminopropyl)-N′-ethylcarbodiimide hydrochloride (EDC), 2-bromopropionyl bromide, 2-bromoisobutyryl bromide, copper(I) bromide, 2,2′-bipyridine (bpy), 6-bromohexanoic acid, 2-[2-(2-chloroethoxy)ethoxy]ethanol, ethyl 2-bromoisobutyrate, 3-(trimethylsilyl)propargyl alcohol, methacyloyl chloride, mouse serum, and human plasma were purchased from Aldrich. 20(S)-camptothecin (CPT) was purchased from Acros. Chromium trioxide was purchased from Alfa Aesar. TFA was purchased from Fisher Scientific. Boc-Gly-OH was purchased from Advanced ChemTech. MPC monomer was synthesized in house. […] Cell viability was measured using CellTiter-Glo luminescent cell viability assays (Promega).
(§3) The COLO 205 and OVCAR 3 cancer cells were cultured in RPMI-1640 medium supplemented with 10% fetal bovine serum (FBS) or 20% FBS and 0.01 mg/ml bovine insulin, while MCF 7 cells were cultured in MEM medium supplemented with 10% FBS and 0.01 mg/ml bovine insulin. […] Cell viability post-treatment was measured using CellTiter-Glo luminescent cell viability assays (Promega) as per manufacturer's instructions on a FLUOstar OPTIMA plate reader (BMG LABTECH). The percentage camptothecin mediated toxicity was calculated with respect to untreated cells, and graphed to give dose response curves. IC50 values for each treatment were then calculated using the GraphPad Prism4 statistical analysis software.

[2] = system: colon (COLO 205) adenocarcinoma cells; details: Homo sapiens, 72 h incubation, CPT-equivalent concentrations
Source text: as §1, §2, §3

[3] = system: ovarian (OVCAR 3) adenocarcinoma cells; details: Homo sapiens, 72 h incubation, CPT-equivalent concentrations
Source text: as §1, §2, §3

`CC[C@@]1(O)C(=O)OCc2c1cc1n(c2=O)Cc2cc3ccccc3nc2-1` [CPT, 20(S)-Camptothecin] was tested, and the pIC50 [1] was 6.54, the pIC50 [2] was 6.49 and the pIC50 [3] was 6.89.
